According to paper PMC5408566 (2016):

What was measured:
[1] = system: ATP DAs on ACE microarray (Cy3 ATP DNA Aptamer) (DNA, aptamer) TCACTGACCTGGGGGAGTATTGCGGAGGAAGGT; assay: surface fluorescence loss (aptamer release), non-equilibrium; conditions: immobilised ACE microarray; negative control ligand; no induced fit binding
[2] = system: 5′Q-5C:11 DA (Cy3 ATP DNA Aptamer with 5′Q-5C:11 ACE) (DNA, aptamer) TCACTGACCTGGGGGAGTATTGCGGAGGAAGGT; assay: solution FRET (Cy3/BHQ-2) equilibrium titration; conditions: 300 mM Na+, 5 mM Mg2+; apparent; 25 °C; 200 nM aptamer; quencher ACE 5′Q-5C:11 displaced, Q:F 1:1; n = 1.2
[3] = system: 5′Q-5C:10 DA (Cy3 ATP DNA Aptamer with 5′Q-5C:10 ACE) (DNA, aptamer) TCACTGACCTGGGGGAGTATTGCGGAGGAAGGT; assay: solution FRET (Cy3/BHQ-2) equilibrium titration; conditions: 300 mM Na+, 5 mM Mg2+; apparent; 25 °C; 200 nM aptamer; quencher ACE 5′Q-5C:10 displaced, Q:F 1:1; n = 1.0
[4] = system: 5′Q-2T:9 DA (Cy3 ATP DNA Aptamer with 5′Q-2T:9 ACE) (DNA, aptamer) TCACTGACCTGGGGGAGTATTGCGGAGGAAGGT; assay: solution FRET (Cy3/BHQ-2) equilibrium titration; conditions: 300 mM Na+, 5 mM Mg2+; apparent; 25 °C; 200 nM aptamer; quencher ACE 5′Q-2T:9 displaced, Q:F 1:1; n = 1.3
[5] = system: 5′Q-5C:9 DA (Cy3 ATP DNA Aptamer with 5′Q-5C:9 ACE) (DNA, aptamer) TCACTGACCTGGGGGAGTATTGCGGAGGAAGGT; assay: solution FRET (Cy3/BHQ-2) equilibrium titration; conditions: 300 mM Na+, 5 mM Mg2+; apparent; 25 °C; 200 nM aptamer; quencher ACE 5′Q-5C:9 displaced, Q:F 1:1; n = 0.7
[6] = system: 5′Q-5C:12 DA (Cy3 ATP DNA Aptamer with 5′Q-5C:12 ACE) (DNA, aptamer) TCACTGACCTGGGGGAGTATTGCGGAGGAAGGT; assay: solution FRET (Cy3/BHQ-2) equilibrium titration; conditions: 300 mM Na+, 5 mM Mg2+; apparent; 25 °C; 200 nM aptamer; quencher ACE 5′Q-5C:12 displaced, Q:F 1:1; n = 1.3

Structure (SMILES)	binding [1]	Kd,Exp Obs [2]	Kd,Exp Obs [3]	Kd,Exp Obs [4]	Kd,Exp Obs [5]	Kd,Exp Obs [6]
Nc1nc2c(ncn2[C@@H]2O[C@H](COP(=O)(O)OP(=O)(O)OP(=O)(O)O)[C@@H](O)[C@H]2O)c(=O)[nH]1	no	–	–	–	–	–
Nc1ncnc2c1ncn2[C@@H]1O[C@H](COP(=O)(O)OP(=O)(O)OP(=O)(O)O)[C@@H](O)[C@H]1O	–	663 µM	163 µM	85 µM	4700 µM	1370 µM
